Structures can show the parent of a compound that is named as a salt. Where two headings read alike, the source gives them in different places.

Usually IC50 stands for the concentration at which inhibition is half-maximal.

Assay [1] has as its system Phosphorylated Ribosomal Protein S6 (RPS6). As to the kind of experiment: THP-1 RPS6 ELISA Assay. The assay is classed as cell-based, Human. The note with it: THP-1 cells, read-out: PI3Kγ_THP1_RPS6_ELISA IC50. Put shortly:
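Serum-starved THP-1 cells were preincubated with a concentration range of compound for 2 h at 37 °C, then stimulated with 10 nM MCP-1 for 15 min. Phospho-RPS6 in lysates was quantified by ELISA at 450 nm. IC50 came from percent inhibition versus log inhibitor concentration.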
On the technique in general: In an ELISA, binding on a coated surface is turned into a signal by an enzyme label.

Assay [2] has as its target PI3Kγ (p110γ) Recombinant Human Protein (Homo sapiens (Human), UniProt P48736). As to the kind of experiment: PI3K-γ Scintillation Proximity Assay. It counts as biochemical. Conditions: read-out: PI3Kγ IC50. Put shortly: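 Recombinant human p110γ assayed at room temperature in 20 mM MOPS pH 6.7, 10 mM MgCl2, 5 mM DTT, 0.03% CHAPS, 2% DMSO, with 20 μM PIP2 and 2 μM ATP plus [γ-33P]ATP. Product captured on WGA SPA beads overnight and counted; IC50 fitted from % of solvent-control activity versus log inhibitor concentration.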
(In general: Scintillation proximity formats need no separation of bound from free tracer.)

The target of assay [3] is PI3Kδ (p110δ/p85α) Recombinant Human Protein (Homo sapiens (Human), UniProt O00329). The assay is described as follows: PI3Kδ Scintillation Proximity Assay. The assay is classed as biochemical. Put shortly: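 Recombinant human p110δ/p85α (3.4 nM) phosphorylates 20 μM di-octanoyl PIP2 using 2 μM ATP spiked with [γ-33P]ATP, 120 min, room temperature, pH 6.7, 2% DMSO. Product measured by scintillation proximity; IC50 from dose-response fit.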
PI3Kδ (p110δ/p85α) Recombinant Human Protein, sequence (O00329 whole entry): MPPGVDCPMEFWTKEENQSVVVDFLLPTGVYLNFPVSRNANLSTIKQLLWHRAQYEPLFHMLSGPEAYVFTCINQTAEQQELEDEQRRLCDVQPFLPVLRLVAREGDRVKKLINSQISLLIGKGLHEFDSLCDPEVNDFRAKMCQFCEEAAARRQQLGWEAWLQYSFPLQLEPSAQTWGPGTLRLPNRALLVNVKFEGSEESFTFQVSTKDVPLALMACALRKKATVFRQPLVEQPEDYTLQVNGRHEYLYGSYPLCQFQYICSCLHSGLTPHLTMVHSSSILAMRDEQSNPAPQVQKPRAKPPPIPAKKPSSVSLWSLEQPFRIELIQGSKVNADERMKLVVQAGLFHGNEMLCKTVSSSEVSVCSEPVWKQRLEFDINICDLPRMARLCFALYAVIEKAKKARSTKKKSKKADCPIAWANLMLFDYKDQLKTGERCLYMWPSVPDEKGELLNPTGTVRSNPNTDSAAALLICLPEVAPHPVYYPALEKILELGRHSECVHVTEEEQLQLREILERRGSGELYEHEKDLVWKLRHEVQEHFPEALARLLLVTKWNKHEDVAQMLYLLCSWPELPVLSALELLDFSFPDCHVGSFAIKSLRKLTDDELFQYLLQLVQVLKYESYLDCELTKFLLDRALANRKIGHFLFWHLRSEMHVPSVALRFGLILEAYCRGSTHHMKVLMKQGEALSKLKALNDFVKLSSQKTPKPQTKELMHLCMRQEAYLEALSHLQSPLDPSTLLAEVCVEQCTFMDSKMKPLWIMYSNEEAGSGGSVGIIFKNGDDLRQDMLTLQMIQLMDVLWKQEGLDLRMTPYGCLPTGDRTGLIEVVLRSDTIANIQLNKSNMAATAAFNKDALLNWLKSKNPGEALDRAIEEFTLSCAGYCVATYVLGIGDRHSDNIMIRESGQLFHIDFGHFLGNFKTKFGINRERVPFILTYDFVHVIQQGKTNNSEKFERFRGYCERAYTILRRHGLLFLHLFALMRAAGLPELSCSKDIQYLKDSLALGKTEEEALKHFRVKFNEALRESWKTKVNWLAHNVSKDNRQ
PI3Kδ (p110δ/p85α) Recombinant Human Protein, sequence (P27986 whole entry partner): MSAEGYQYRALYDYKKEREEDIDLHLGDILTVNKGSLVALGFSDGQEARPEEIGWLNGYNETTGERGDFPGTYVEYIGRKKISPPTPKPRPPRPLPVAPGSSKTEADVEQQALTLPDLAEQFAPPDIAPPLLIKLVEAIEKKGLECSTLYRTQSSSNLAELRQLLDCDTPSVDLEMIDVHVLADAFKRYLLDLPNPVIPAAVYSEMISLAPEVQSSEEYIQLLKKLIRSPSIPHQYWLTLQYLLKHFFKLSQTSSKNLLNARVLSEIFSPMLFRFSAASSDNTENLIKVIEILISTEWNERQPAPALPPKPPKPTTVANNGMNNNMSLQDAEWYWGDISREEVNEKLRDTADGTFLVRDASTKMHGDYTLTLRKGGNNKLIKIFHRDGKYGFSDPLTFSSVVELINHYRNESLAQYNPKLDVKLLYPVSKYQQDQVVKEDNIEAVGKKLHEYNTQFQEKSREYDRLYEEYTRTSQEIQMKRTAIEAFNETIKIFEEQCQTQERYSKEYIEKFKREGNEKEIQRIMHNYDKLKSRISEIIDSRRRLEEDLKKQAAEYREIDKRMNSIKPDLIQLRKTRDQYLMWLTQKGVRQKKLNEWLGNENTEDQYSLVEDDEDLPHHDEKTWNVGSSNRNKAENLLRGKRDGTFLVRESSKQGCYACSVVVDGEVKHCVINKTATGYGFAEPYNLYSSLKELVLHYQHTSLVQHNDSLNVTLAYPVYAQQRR

PI3Kγ (p110γ) Recombinant Human Protein, sequence (P48736 whole entry): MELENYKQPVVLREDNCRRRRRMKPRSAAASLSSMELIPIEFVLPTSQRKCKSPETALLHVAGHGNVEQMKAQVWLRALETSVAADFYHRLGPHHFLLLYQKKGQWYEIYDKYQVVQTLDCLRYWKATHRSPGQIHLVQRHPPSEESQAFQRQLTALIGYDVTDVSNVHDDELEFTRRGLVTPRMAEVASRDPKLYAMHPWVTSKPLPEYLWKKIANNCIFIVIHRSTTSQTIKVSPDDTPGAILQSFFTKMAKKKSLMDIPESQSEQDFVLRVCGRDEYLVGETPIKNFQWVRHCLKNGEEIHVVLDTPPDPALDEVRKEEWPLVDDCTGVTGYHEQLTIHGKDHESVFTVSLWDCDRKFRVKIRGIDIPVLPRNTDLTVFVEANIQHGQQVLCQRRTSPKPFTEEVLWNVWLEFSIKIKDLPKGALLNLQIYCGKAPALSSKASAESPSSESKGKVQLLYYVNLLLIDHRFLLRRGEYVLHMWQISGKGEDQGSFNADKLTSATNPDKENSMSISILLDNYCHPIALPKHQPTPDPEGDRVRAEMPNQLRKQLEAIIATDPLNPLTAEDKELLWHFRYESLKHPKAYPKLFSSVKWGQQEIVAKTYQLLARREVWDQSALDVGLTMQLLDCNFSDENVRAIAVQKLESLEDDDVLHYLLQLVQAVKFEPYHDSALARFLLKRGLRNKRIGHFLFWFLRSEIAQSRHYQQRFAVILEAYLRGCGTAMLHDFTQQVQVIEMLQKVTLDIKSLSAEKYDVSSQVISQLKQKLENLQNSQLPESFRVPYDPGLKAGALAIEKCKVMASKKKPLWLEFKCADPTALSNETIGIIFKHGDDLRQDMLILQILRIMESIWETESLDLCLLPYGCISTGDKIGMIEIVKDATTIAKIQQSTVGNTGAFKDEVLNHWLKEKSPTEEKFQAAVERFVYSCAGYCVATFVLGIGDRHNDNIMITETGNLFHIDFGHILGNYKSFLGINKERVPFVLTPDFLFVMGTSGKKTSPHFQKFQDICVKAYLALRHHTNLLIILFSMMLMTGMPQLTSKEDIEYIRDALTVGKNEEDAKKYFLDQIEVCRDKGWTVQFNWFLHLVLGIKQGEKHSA

For `Cc1ccc(S(=O)(=O)NC23CCC(CO)(C2)C3)cc1-c1cnc2c(N)nc(C(F)(F)F)cn12` [Example 275, 3-(8-Amino-6-(trifluoromethyl)imidazo[1,2-a]pyrazin-3-yl)-N-(4-(hydroxymethyl)bicyclo[2.1.1]hexan-1-yl)-4-methylbenzenesulfonamide trifluoroacetate salt], the IC50 was 100 to 500 nM in assay [1] (Homo sapiens), < 100 nM in assay [2] and 100 to 500 nM in assay [3].
On to `Cc1ccc(S(=O)(=O)NCC2(C#N)CC2)cc1-c1cnc2c(N)ncnn12` [Example 101, 3-(4-Aminoimidazo[1,2-f][1,2,4]triazin-7-yl)-N-((1-cyanocyclopropyl)methyl)-4-methylbenzenesulfonamide trifluoroacetate salt], for which the IC50 in assay [1] was > 1000 nM; in assay [2], < 100 nM; in assay [3], 500 to 2000 nM.
On to `Cc1ccc(S(=O)(=O)NC2CN(CCO)C2)cc1-c1cnc2c(N)nc(C(F)(F)F)nn12` [Example 329, 3-(4-Amino-2-(trifluoromethyl)imidazo[1,2-f][1,2,4]triazin-7-yl)-N-(1-(2-hydroxyethyl)azetidin-3-yl)-4-methylbenzenesulfonamide trifluoroacetate salt], for which the values for the IC50 in assay [1], in assay [2] and in assay [3] were 100 to 500 nM, < 100 nM and 100 to 500 nM, respectively.
With `Cc1ccc(S(=O)(=O)NC23CC(c4cnco4)(C2)C3)cc1-c1cnc2c(N)ncnn12` [Example 111, 3-(4-Aminoimidazo[1,2-f][1,2,4]triazin-7-yl)-4-methyl-N-(3-(oxazol-5-yl)bicyclo[1.1.1]pentan-1-yl)benzenesulfonamide trifluoroacetate salt], the IC50 was 100 to 500 nM in assay [1], < 100 nM in assay [2] and 100 to 500 nM in assay [3].
`Cc1c(F)cc(S(=O)(=O)NC23CCC(CO)(CC2)OC3)cc1-c1cnc2c(N)ncnn12` [Example 375, 3-(4-aminoimidazo[1,2-f][1,2,4]triazin-7-yl)-5-fluoro-N-(1-(hydroxymethyl)-2-oxabicyclo[2.2.2]octan-4-yl)-4-methylbenzenesulfonamide trifluoroacetate salt]: the IC50 in assay [1] was < 100 nM; in assay [2], < 100 nM; in assay [3], 100 to 500 nM.
For the molecule `C[C@]1(O)CC[C@H](NS(=O)(=O)c2cc(-c3cnc4c(N)nc(-c5ccncc5F)cn34)ccc2F)CC1` [Example 422, 5-(8-amino-6-(3-fluoropyridin-4-yl)imidazo[1,2-a]pyrazin-3-yl)-2-fluoro-N-((1r,4r)-4-hydroxy-4-methylcyclohexyl)benzenesulfonamide], the IC50 in assay [1], in assay [2] and in assay [3] was < 100 nM in each case.
In the case of `N#CC12CCC(NS(=O)(=O)c3cc(-c4cnc5c(N)nc(C(F)(F)F)nn45)ccc3Cl)(C1)C2` [Example 414, 5-(4-Amino-2-(trifluoromethyl)imidazo[1,2-f][1,2,4]triazin-7-yl)-2-chloro-N-(4-cyanobicyclo[2.1.1]hexan-1-yl)benzenesulfonamide], the IC50 in assay [1] was 100 to 500 nM; in assay [2], < 100 nM; in assay [3], < 100 nM.
For `COc1ncccc1-c1cn2c(-c3cc(S(=O)(=O)C(C)(C)C(C)O)ccc3C)cnc2c(N)n1` (stereo not drawn) [Example 502, 3-((3-(8-Amino-6-(2-methoxypyridin-3-yl)imidazo[1,2-a]pyrazin-3-yl)-4-methylphenyl)sulfonyl)-3-methylbutan-2-ol trifluoroacetate], the IC50 in assay [1] (Homo sapiens) is 100 to 500 nM; in assay [2] it was < 100 nM; in assay [3], < 100 nM.
Regarding `Cc1ccc(S(=O)(=O)NC2CC(F)(F)C2)cc1-c1cnc2c(N)nc(C(=O)NC3CCC3)cn12` [Example 448, 8-amino-N-cyclobutyl-3-(5-(N-(3,3-difluorocyclobutyl)sulfamoyl)-2-methylphenyl)imidazo[1,2-a]pyrazine-6-carboxamide trifluoroacetate salt], the IC50 in assay [1] (Homo sapiens) is 100 to 500 nM; in assay [2], < 100 nM; in assay [3], 500 to 2000 nM.
In the same order, the values of `Cc1ccc(S(=O)(=O)N[C@H]2CC[C@H](CO)OC2)cc1-c1cnc2c(N)ncnn12` [Example 62, 3-(4-Aminoimidazo[2,1-f][1,2,4]triazin-7-yl)-N-[(3S,6R)-6-(hydroxymethyl)tetrahydro-2H-pyran-3-yl]-4-methylbenzenesulfonamide] are 100 to 500 nM, < 100 nM and 100 to 500 nM.
Turning to `Cc1nc(N)c2ncc(-c3cc(S(=O)(=O)NC45CCC(CO)(CC4)OC5)cc(F)c3C)n2n1` [Example 404, 3-(4-amino-2-methylimidazo[1,2-f][1,2,4]triazin-7-yl)-5-fluoro-N-(1-(hydroxymethyl)-2-oxabicyclo[2.2.2]octan-4-yl)-4-methylbenzenesulfonamide trifluoroacetate salt], the half-inhibitory concentration (IC50) in assay [1], in assay [2] and in assay [3] was < 100 nM in each case.
Regarding `Cc1ccc(S(=O)(=O)N2CCCC(CO)C2)cc1-c1cnc2c(N)nc(C(F)(F)F)cn12` (stereo not drawn) [Example 472, (1-((3-(8-Amino-6-(trifluoromethyl)imidazo[1,2-a]pyrazin-3-yl)-4-methylphenyl)sulfonyl)piperidin-3-yl)methanol], the IC50 is 100 to 500 nM in assay [1] (Homo sapiens), < 100 nM in assay [2] and 100 to 500 nM in assay [3].
With `Nc1nccn2c(-c3cc(S(=O)(=O)N[C@H]4CC[C@H](O)CC4)ccc3F)cnc12` [Example 42, 3-(8-Aminoimidazo[1,2-a]pyrazin-3-yl)-4-fluoro-N-(trans-4-hydroxycyclohexyl)benzenesulfonamide], the half-inhibitory concentration (IC50) in assay [1] (Homo sapiens) is 500 to 1000 nM; in assay [2], < 100 nM; in assay [3], 500 to 2000 nM.
Taken in the same sequence, the figures for `Cc1ccc(S(=O)(=O)N[C@H]2C[C@@H](CO)C2)cc1-c1cnc2c(N)ncnn12` [Example 61, 3-(4-Aminoimidazo[2,1-f][1,2,4]triazin-7-yl)-N-[cis-3-(hydroxymethyl)cyclobutyl]-4-methylbenzenesulfonamide] were 500 to 1000 nM, < 100 nM and 500 to 2000 nM.
Taken in the same sequence, the figures for `CO[C@H]1CC[C@H](NS(=O)(=O)c2ccc(C)c(-c3cnc4c(N)nccn34)c2)CC1` [Example 53, 3-(8-Aminoimidazo[1,2-a]pyrazin-3-yl)-N-(trans-4-methoxycyclohexyl)-4-methylbenzenesulfonamide] were > 1000 nM, < 100 nM and 500 to 2000 nM.
Taken in the same sequence, the figures for `Cc1ccc(S(=O)(=O)NC23CC(N4CCOCC4)(C2)C3)cc1-c1cnc2c(N)nc(C(F)(F)F)cn12` [Example 296, 3-(8-Amino-6-(trifluoromethyl)imidazo[1,2-a]pyrazin-3-yl)-4-methyl-N-(3-morpholinobicyclo[1.1.1]pentan-1-yl)benzenesulfonamide trifluoroacetate salt] were 100 to 500 nM, < 100 nM and 500 to 2000 nM.
With `Cc1ccc(S(=O)(=O)NC23COC(C#N)(C2)C3)cc1-c1cnc2c(N)nc(C(F)(F)F)cn12` [Example 429, 3-(8-Amino-6-(trifluoromethyl)imidazo[1,2-a]pyrazin-3-yl)-N-(1-cyano-2-oxabicyclo[2.1.1]hexan-4-yl)-4-methylbenzenesulfonamide trifluoroacetate salt], the IC50 was 100 to 500 nM in assay [1] (Homo sapiens), < 100 nM in assay [2] and 100 to 500 nM in assay [3].
Consider `Cc1ccc(S(=O)(=O)N(C)[C@H]2CN(C)C[C@@H]2O)cc1-c1cnc2c(N)nc(C(F)(F)F)cn12` [Example 299, 3-(8-amino-6-(trifluoromethyl)imidazo[1,2-a]pyrazin-3-yl)-N-((3S,4S)-4-hydroxy-1-methylpyrrolidin-3-yl)-N,4-dimethylbenzenesulfonamide], for which the values for the 50% inhibitory concentration (IC50) in assay [1] (Homo sapiens), in assay [2] and in assay [3] were 100 to 500 nM, < 100 nM and 100 to 500 nM, respectively.
For `Cc1ccc(S(=O)(=O)N[C@H]2CC[C@H](O)CC2)cc1-c1cnc2c(N)ncnn12` [Example 39, 3-(4-Aminoimidazo[2,1-f][1,2,4]triazin-7-yl)-N-(trans-4-hydroxycyclohexyl)-4-methylbenzenesulfonamide], the IC50 was 100 to 500 nM in assay [1] (Homo sapiens), < 100 nM in assay [2] and 100 to 500 nM in assay [3].
Take `Cc1ccc(S(=O)(=O)N(C)[C@H]2CC[C@H](O)CC2)cc1-c1cnc2c(N)ncnn12` [Example 69, 3-(4-Aminoimidazo[2,1-f][1,2,4]triazin-7-yl)-N-(trans-4-hydroxycyclohexyl)-N,4-dimethylbenzenesulfonamide]: the half-maximal inhibitory concentration (IC50) in assay [1] (Homo sapiens) was 100 to 500 nM; in assay [2], < 100 nM; in assay [3], 500 to 2000 nM.
For the molecule `Cc1ccc(S(=O)(=O)NC23CC(Cn4ccnc4)(C2)C3)cc1-c1cnc2c(N)ncnn12` [Example 112, N-(3-((1H-Imidazol-1-yl)methyl)bicyclo[1.1.1]pentan-1-yl)-3-(4-aminoimidazo[1,2-f][1,2,4]triazin-7-yl)-4-methylbenzenesulfonamide trifluoroacetate salt], the IC50 was 100 to 500 nM in assay [1], < 100 nM in assay [2] and 100 to 500 nM in assay [3].

Source of the values: patent publication US10479795B2 (Incyte Corporation, priority 2016, dated 2019).
